Experimental data published in ChEMBL document CHEMBL1201862, “PubChem BioAssay data set” (2004).
Values joined by “and” are separate entries in the source; they are usually repeats but may differ in a detail not shown here. Identical values can stand only once.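 Step 1: Grow cells in 96-well plates. Step 2: Expose to compound for 48 hours at 5 concentrations. Step 3: Interpolate endpoints linearly; if unreached, use highest concentration. GI50 is the concentration that inhibits growth by half.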 Active and inactive are the calls of the source. Cut-off read from the data, not from the text of the source: active = GI50 up to about 1.1 µM and inactive = higher.

How the values were obtained:
Test in all cases: NCI tumour cell line growth inhibition, 48 h
NCI-H460 = system: NCI-H460
K562 = system: K562
M19-MEL = system: M19-MEL
A498 = system: A498
HCT-116 = system: HCT-116
OVCAR-3 = system: OVCAR-3
OVCAR-8 = system: OVCAR-8
UACC-62 = system: UACC-62
EKVX = system: EKVX
SW-620 = system: SW-620
SF-268 = system: SF-268
SF-539 = system: SF-539
LOX IMVI = system: LOX IMVI
RXF 631 = system: RXF 631
DMS-114 = system: DMS-114
HCC 2998 = system: HCC 2998
UACC-257 = system: UACC-257
DLD-1 = system: DLD-1
SNB-19 = system: SNB-19
KM12 = system: KM12
CCRF-CEM = system: CCRF-CEM
RPMI-8226 = system: RPMI-8226
CAKI-1 = system: CAKI-1
SNB-78 = system: SNB-78
A549 = system: A549
SN12C = system: SN12C
786-0 = system: 786-0
NCI-H226 = system: NCI-H226
OVCAR-5 = system: OVCAR-5
SNB-75 = system: SNB-75
ACHN = system: ACHN
U-251 = system: U-251
RXF 393 = system: RXF 393
SK-MEL-5 = system: SK-MEL-5
HCT-15 = system: HCT-15
TK-10 = system: TK-10
COLO 205 = system: COLO 205
Malme-3M = system: Malme-3M
DMS-273 = system: DMS-273
NCI-H522 = system: NCI-H522
M14 = system: M14
HOP-62 = system: HOP-62
KM-20L2 = system: KM-20L2
SF-295 = system: SF-295
SK-OV-3 = system: SK-OV-3
UO-31 = system: UO-31
IGROV-1 = system: IGROV-1
HT-29 = system: HT-29
MOLT-4 = system: MOLT-4
SK-MEL-2 = system: SK-MEL-2
DU-145 = system: DU-145
XF498 = system: XF498
T47D = system: T47D
HOP-18 = system: HOP-18
MDA-N = system: MDA-N
LXFL 529 = system: LXFL 529
HOP-92 = system: HOP-92

`C[n+]1cc(C(O)c2ccc3c(c2)OCO3)c2ccccc2c1` (stereo not drawn) was tested, and the GI50 (NCI-H460) was 40.3 µM (inactive), the GI50 (K562) was 25.1 µM (inactive) and the GI50 (M19-MEL) was 40.6 µM (inactive). The GI50 (A498) was 29.9 µM (inactive), the GI50 (HCT-116) was 28.4 µM (inactive) and the GI50 (OVCAR-3) was 28.8 µM (inactive). For the same molecule, the GI50 (OVCAR-8) was 33.3 µM (inactive), the GI50 (UACC-62) was 22.9 µM (inactive) and the GI50 (EKVX) was 27 µM (inactive). The GI50 (SW-620) was 44.2 µM (inactive), the GI50 (SF-268) was 28.6 µM (inactive) and the GI50 (SF-539) was 30.2 µM (inactive). The GI50 (LOX IMVI) was 46 µM (inactive), the GI50 (RXF 631) was 40.8 µM (inactive) and the GI50 (DMS-114) was 21.9 µM (inactive). For the same molecule, the GI50 (HCC 2998) was 37.8 µM (inactive), the GI50 (UACC-257) was 18.6 µM (inactive) and the GI50 (DLD-1) was 31.8 µM (inactive). For the same molecule, the GI50 (SNB-19) was 44.3 µM (inactive), the GI50 (KM12) was 38.3 µM (inactive) and the GI50 (CCRF-CEM) was 29.9 µM (inactive). For the same molecule, the GI50 (RPMI-8226) was 13.9 µM (inactive), the GI50 (CAKI-1) was 13.9 µM (inactive) and the GI50 (SNB-78) was 28.6 µM (inactive). For the same molecule, the GI50 (A549) was 33.3 µM (inactive), the GI50 (SN12C) was 40.6 µM (inactive) and the GI50 (786-0) was 36.5 µM (inactive). The GI50 (NCI-H226) was 20.6 µM (inactive), the GI50 (OVCAR-5) was > 100 µM (inactive) and the GI50 (SNB-75) was 41.1 µM (inactive). The GI50 (ACHN) was 29.1 µM (inactive), the GI50 (U-251) was 27 µM (inactive) and the GI50 (RXF 393) was 14.1 µM (inactive). For the same molecule, the GI50 (SK-MEL-5) was 17.9 µM (inactive), the GI50 (HCT-15) was 33.5 µM and the GI50 (TK-10) was 36.8 µM (inactive). For the same molecule, the GI50 (COLO 205) was 33.2 µM (inactive), the GI50 (Malme-3M) was 25.4 µM (inactive) and the GI50 (DMS-273) was 31.2 µM (inactive). For the same molecule, the GI50 (NCI-H522) was 16 µM (inactive), the GI50 (M14) was 25.4 µM (inactive) and the GI50 (HOP-62) was 37.7 µM (inactive). For the same molecule, the GI50 (KM-20L2) was 45.5 µM (inactive), the GI50 (SF-295) was 28.6 µM (inactive) and the GI50 (SK-OV-3) was 45.5 µM (inactive). The GI50 (UO-31) was 16.6 µM (inactive), the GI50 (IGROV-1) was 47.4 µM (inactive) and the GI50 (HT-29) was 51.2 µM (inactive). For the same molecule, the GI50 (MOLT-4) was 17.9 µM (inactive) and the GI50 (SK-MEL-2) was 26.2 µM (inactive).
For `CN(C)CC1CCCC(CN(C)C)C1=O` (stereo not drawn), the GI50 (NCI-H460) was 19.8 µM (inactive) and 17.5 µM (inactive), the GI50 (M19-MEL) was 3.65 µM (inactive) and the GI50 (OVCAR-3) was 2.58 µM (inactive) and 1.95 µM (inactive). For the same molecule, the GI50 (OVCAR-8) was 2.71 µM (inactive) and 2.98 µM (inactive), the GI50 (EKVX) was 5.74 µM (inactive) and 6.61 µM (inactive) and the GI50 (SW-620) was 196 nM (active) and 271 nM (active). The GI50 (DU-145) was > 10 µM (inactive) and 15.6 µM (inactive), the GI50 (XF498) was 2.09 µM (inactive) and the GI50 (DMS-114) was 1.48 µM (inactive). The GI50 (HCC 2998) was 13.9 µM (inactive) and 19.3 µM (inactive), the GI50 (UACC-257) was 2.34 µM (inactive) and 2.11 µM (inactive) and the GI50 (T47D) was 1.69 µM (inactive) and 1.24 µM (inactive). For the same molecule, the GI50 (DLD-1) was 1.12 µM (active), the GI50 (SNB-19) was > 45.6 µM (inactive) and 47 µM (inactive) and the GI50 (HOP-18) was 1.83 µM (inactive). The GI50 (MDA-N) was 11 µM (inactive) and 12.1 µM (inactive), the GI50 (SNB-78) was 3.5 µM (inactive) and the GI50 (A549) was 24.9 µM (inactive) and 27.2 µM (inactive). For the same molecule, the GI50 (786-0) was 2.32 µM (inactive) and 1.77 µM (inactive), the GI50 (LXFL 529) was 0.386 µM (active) and the GI50 (OVCAR-5) was 18.2 µM (inactive) and 18.3 µM (inactive). For the same molecule, the GI50 (SNB-75) was 16.4 µM (inactive) and 13.9 µM (inactive), the GI50 (ACHN) was 1.33 µM (inactive) and 1.87 µM (inactive) and the GI50 (U-251) was 10.7 µM (inactive) and 17.9 µM (inactive). For the same molecule, the GI50 (RXF 393) was 1.73 µM (inactive) and 1.26 µM (inactive), the GI50 (SK-MEL-5) was 8.38 µM (inactive) and 16 µM (inactive) and the GI50 (COLO 205) was 1.67 µM (inactive) and 3.33 µM (inactive). For the same molecule, the GI50 (DMS-273) was 10.9 µM (inactive), the GI50 (KM-20L2) was 5.02 µM (inactive) and the GI50 (HOP-92) was 1.91 µM (inactive) and 968 nM (active). The GI50 (IGROV-1) was 19.3 µM (inactive) and 18.1 µM (inactive), the GI50 (MOLT-4) was 241 nM (active) and 450 nM (active) and the GI50 (SK-MEL-2) was 8.73 µM (inactive) and 17.2 µM (inactive).
